Molecules are shown by their SMILES.

Test [1] addresses T1, APE1 (Homo sapiens, UniProt P27695).
T1 construct: made in house
The test is described as follows: Gel-based radiotracer (32P) APE1 incision assay.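 Also: APE1 incision reactions ran 5 min at 37 °C, with cleaved product and intact substrate resolved electrophoretically.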 The format is biochemical. The arrangement: concentration or dose not given beside the values. The settings on record: percent incision shown; entries 1-112.

In test [2] the target is T1, APE1. Description: Fluorescence polarization (FP) displacement assay of APE1 binding to AP-DNA probe.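 Also: TAMRA 5′-labeled duplex DNA with THF abasic site (5 nM) and APE1 (20 nM), Mg2+-free buffer, 15 min at room temperature, inhibition seen as lowered polarization.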 The settings on record: read-out: FP IC50. On the technique in general: Fluorescence polarisation rises when a labelled molecule tumbles more slowly, as on binding a larger partner.
Description: Double-stranded oligodeoxynucleotide containing tetrahydrofuran (THF) abasic site labeled with TAMRA at the 5′-end was used as the labeled binding probe. Inhibition of APE1 binding to labeled probe was detected by a decrease in the fluorescence polarization (FP) of the fluorophore. Briefly, 4 µL mixture of 20 nM APE1 and 5 nM probe contained in the enzymatic assay buffer from which Mg^2+ was omitted, was dispensed into 1536-well Greiner black solid bottom plates. Compounds (23 nL) were transferred via pintool, and after a 15-minute incubation at room temperature, fluorescence polarization was measured in a ViewLux High-throughput CCD imager (480 nm excitation and 540 nm emission) to determine the degree of probe displacement caused by the test compounds.
Test [3] deals with HeLa cells. Description: MMS potentiation assay (CellTiter Glo viability). The arrangement: key: N.A., no activity observed; P, positive; I, inconclusive; N.T., not tested. The settings on record: for MMS Assay: potentiation of the genotoxic effect of methylmethane sulfonate. The format is cell-based, human. Here is the method: HeLa cells were plated at 6000 cells/well in DMEM culture medium containing 10% FBS into white solid bottom 384-well cell culture plates. The plates were incubated at 37°C overnight for cell attachment, followed by media replacement. The fresh medium contained serial dilutions of compounds of interest in the presence (0.4 mM final) or absence of MMS. The plates were incubated for 24 h at 37°C. Cell viability was determined by luminescence detection after an addition of 15 µL of CellTiter Glo reagent (Promega, Madison, WI). Percent viability was calculated for each concentration of compound tested in duplicate by relating the corresponding luminescence to that of a negative DMSO vehicle control. MMS potentiation trends were defined as follows: negative (-), if cell viability in the compound-plus-MMS treatment was the same as that of the DMSO-plus-MMS control (overlapping dose-response curves); inconclusive (I), if the shift in the cell viability dose-response upon MMS inclusion relative to compound-alone was less than 30%; and positive (P), if the difference between the compound-plus-MMS and compound-alone curves was at least 30%, and maintained within at least a two-fold compound concentration span.
To examine the biological prospects of the top compounds, we tested their ability to inhibit APE1 DNA repair activity by assessing enhancement of MMS toxicity in mammalian cells. MMS creates methylated-base damage to genomic DNA, which, when excised by an alkylpurine DNA glycosylase, results in a high number of cytotoxic AP sites. We compared the viability of HeLa cells exposed to a dilution series of inhibitor alone to a combination of a fixed MMS concentration with the same dilution series of inhibitor by using a standard CellTiter Glo luminescence assay. This technique measures the number of viable cells in culture based on quantitation of the ATP present, which signals the presence of metabolically active cells. The assay was further optimized for 384-well plates, allowing a high-throughput testing of multiple hits at multiple concentrations, a scope of investigation previously impossible due to the very low throughput of the traditionally applied colony formation assay.
From the 223 compounds found positive in the gel-based APE1 assays, exclusion of the most promiscuous hits, that is, those that were both DNA binders and EndoIV-inhibitory, yielded a set of 170 compounds (Figure 3). This shortened group of hits was tested in the cell-based potentiation assay for their ability to dose-dependently enhance sensitivity of HeLa cells to the alkylating agent MMS.
In general terms: ATP-based viability assays read luminescence as a measure of living cells.

The target in test [4] is T1, APE1. The test is described as follows: Fluorogenic kinetic qHTS APE1 incision assay (primary screen and retest of cherrypicked samples).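 Also: purified APE1 cleaving a fluorophore/dark-quencher labelled 17-mer duplex DNA bearing a tetrahydrofuran AP site, fluorescence rise followed kinetically over the first 2 min, inhibition normalized to controls.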 The format is biochemical. (In qHTS, concentration-response curves come from the screen itself.)
Test [5] has as its target double-stranded 17-mer DNA fragment. The test is described as follows: ThO (Thiazole Orange) DNA displacement assay.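 Also: miniaturized displacement of the intercalating dye from unlabeled duplex DNA, used to flag nonspecific DNA binders, chiefly intercalators, groove binders may be missed.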 The settings on record: read-out: ThO-DNA binding IC50. The format is binding.
Description: The double-stranded 17-mer DNA fragment used in the ThO DNA binding assay was of the same sequence as the fluorogenic HTS substrate but carried no dye labels.
(§1) In order to screen out nonselective compounds, such as non-specific DNA binders and inhibitors of related enzymes, we used a miniaturized ThO DNA displacement assay and a counterscreen against the bacterial endonuclease E. coli Endo IV, respectively, following the previously published protocols [21].
To detect screening hits that inhibit APE1 activity through non-specific DNA interactions, we employed a previously established miniaturized ThO dye displacement assay [21]. […] We note that the ThO assay reports primarily on DNA binders acting through intercalation, while potentially missing other types of DNA binders, such as those acting through the minor groove.
Test [6] addresses T2, E. coli Endo IV (Escherichia coli, UniProt P0A6C1).
T2 construct: made in house
Description: E. coli Endo IV profiling counterscreen.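 Also: selectivity counterscreen of candidate APE1 inhibitors against the bacterial endonuclease Endo IV, run in the same assay format as the primary APE1 high-throughput screen.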 The format is biochemical. The settings on record: read-out: EndoIV IC50.
Description: as §1
To probe the selectivity of the candidate APE1 inhibitors, we tested them against E. coli EndoIV [36], employing the same assay as used in the HTS.

The target of test [7] is T1, APE1. The test is described as follows: Gel-based APE1 incision assay with fluorescence (TAMRA) detection. The format is biochemical.
The mark [8] stands for this setting: initial quantitative high-throughput screen, read-out: APE1 qHTS IC50.
[9] abbreviates: retest of cherrypicked sample, read-out: APE1 Retest IC50.
The mark [10] stands for this setting: entries 113-223: fluorophore detection, estimated IC50, read-out: Gel-based electrophoretic separation assay with fluorophore detection, estimated IC50 (column headed Radiotracer Assay (%Activity)).
[11] abbreviates: estimated IC50, fluorophore detection, entries 113-223, read-out: F-PAGE Assay IC50.

T1 sequence (P27695 whole entry): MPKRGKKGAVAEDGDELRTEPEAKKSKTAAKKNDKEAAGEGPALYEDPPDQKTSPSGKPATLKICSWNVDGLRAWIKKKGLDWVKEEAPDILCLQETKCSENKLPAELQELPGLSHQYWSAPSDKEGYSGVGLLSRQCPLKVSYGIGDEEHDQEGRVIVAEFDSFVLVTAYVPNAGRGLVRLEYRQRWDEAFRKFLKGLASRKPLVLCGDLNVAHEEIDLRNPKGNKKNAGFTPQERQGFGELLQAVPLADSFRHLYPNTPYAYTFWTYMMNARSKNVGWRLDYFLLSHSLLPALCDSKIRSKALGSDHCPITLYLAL

Regarding `COc1ccc(CN2C(=O)NC(=O)/C(=C\c3ccco3)C2=O)cc1` [MLS000723827], the “Radiotracer Assay (%Activity)” value in test [1] came to 18%. Further, the IC50 in test [2] is above 57 µM; in test [4] (setting [8]) it was 22.4 µM; in test [4] (setting [9]) it was 14.1 µM; in test [5], above 57 µM; in test [6] it was above 57 µM. The “MMS Assay” value in test [3] was “I”.
For `CC(=O)Nc1sc2c(c1-c1nc3ccccc3s1)CCN(C(C)C)C2` [MLS000419194], the “Radiotracer Assay (%Activity)” value in test [1] is 2%. In addition, the IC50 in test [2] was 2.5 µM; in test [4] (setting [8]) it was 14.1 µM; in test [4] (setting [9]), 3.9 µM; in test [5] it was above 57 µM. The “MMS Assay” value in test [3] is “P”.
For `COc1ccc(OCCOc2ccc(/C=C3\C(=N)N4N=C(C)SC4=NC3=O)cc2)cc1` [MLS001359901], the IC50 is above 57 µM in test [2]; 10 µM in test [7] (setting [10]); 9.5 µM in test [4] (setting [8]); 5.8 µM in test [4] (setting [9]); above 57 µM in test [5]; above 57 µM in test [6].
In the case of `NS(=O)(=O)c1cc(C(=O)NC2CCSc3ccccc32)ccc1Cl` (centres unmarked) [MLS001233727], the IC50 was above 57 µM in test [2]; 0.1 µM in test [7] (setting [11]); 0.1 µM in test [4] (setting [8]); 0.3 µM in test [4] (setting [9]); above 57 µM in test [5]; above 57 µM in test [6].
Take `O=C(Nc1ccc2oc(-c3ccccc3F)nc2c1)c1ccc([N+](=O)[O-])o1` [MLS001194759]: the IC50 was above 57 µM in test [2]; 2.5 µM in test [7] (setting [11]); 2.7 µM in test [4] (setting [8]); 3.2 µM in test [4] (setting [9]); 10.2 µM in test [5]; above 57 µM in test [6].
For the molecule `O=C(C[C@@H]1C/C=C\C[C@H](Cc2ccc(F)cc2)C(=O)OC[C@@H](Cc2c[nH]c3ccccc23)NC1=O)NCCO` [MLS002320105], the IC50 in test [2] was above 57 µM; in test [7] (setting [11]) it was 5.6 µM; in test [4] (setting [8]) it was 11.9 µM; in test [5], above 57 µM; in test [6], above 57 µM.
For `Cc1ccccc1CN1CCN(Cc2cc(=O)c3ccccc3[nH]2)CC1CCO` (centres unmarked) [MLS001000225], in test [3], the “MMS Assay: potentiation of the genotoxic effect of methylmethane sulfonate” value is on record as “I”. The IC50 in test [5] and in test [6] was above 57 µM each time.
For the molecule `CN(CC(=O)Nc1c(Cl)cccc1Cl)C(=O)c1cccc(-n2cccc2)c1` [MLS001079471], the IC50 in test [2] was 10.2 µM; in test [7] (setting [11]), 2.5 µM; in test [4] (setting [8]), 4.2 µM; in test [4] (setting [9]), 11.5 µM; in test [5] it was above 57 µM; in test [6], above 57 µM.
With `COc1ccc(Cl)cc1NC(=O)CCS(=O)(=O)c1ccc(Br)cc1` [MLS001202289], the IC50 in test [2] is above 57 µM; in test [7] (setting [10]) it was 12.6 µM; in test [4] (setting [8]), 11.9 µM; in test [4] (setting [9]), 45.7 µM; in test [5] it was 45.7 µM; in test [6] it was above 57 µM.
As for `COc1ccc(S(=O)(=O)NCCC(=O)NC2CCCCC2C)cc1[N+](=O)[O-]` (centres unmarked) [MLS002251710], the IC50 was 20.4 µM in test [2]; 11.2 µM in test [7] (setting [10]); 26.7 µM in test [4] (setting [8]); 16.2 µM in test [4] (setting [9]); above 57 µM in test [5]; above 57 µM in test [6].
Consider `CCOC(=O)C1CCCN(C(=O)c2cc(-c3ccco3)nc3ccccc23)C1` (centres unmarked) [MLS002245402], for which the IC50 was above 57 µM in test [2]; 4 µM in test [7] (setting [11]); 8.4 µM in test [4] (setting [8]); 18.2 µM in test [4] (setting [9]); 32.4 µM in test [5]; above 57 µM in test [6].
`CC(C)C(=O)NC(C)C(c1cccs1)N1CCN(c2ccccc2)CC1` (centres unmarked) [MLS000092582]: in test [3], the “MMS Assay” value is listed as “I”. Further, the IC50 in test [5] and in test [6] was above 57 µM each time.
`CCOC(=O)c1ccc2[nH]c(-c3ccc(S(=O)(=O)F)cc3)cc(=O)c2c1` [MLS000737558]: the IC50 in test [2] is 20.4 µM; in test [7] (setting [10]), 28.2 µM; in test [4] (setting [8]), 18.9 µM; in test [4] (setting [9]), 14.5 µM; in test [5], above 57 µM; in test [6] it was 36.3 µM.
With `O=C(CSc1nnc(Nc2ccccc2F)s1)NC(=O)CN1CCCC1=O` [MLS002163634], the IC50 in test [2] was 18.2 µM; in test [7] (setting [11]), 8.9 µM; in test [4] (setting [8]) it was 10.6 µM; in test [4] (setting [9]), 10.2 µM; in test [5] it was above 57 µM; in test [6] it was above 57 µM.
With `COCCN(CC(=O)Nc1cccc(C)c1C)C(=O)c1cc2c(s1)CCC2` [MLS002170765], the IC50 was above 57 µM in test [2]; 17.8 µM in test [7] (setting [10]); 15 µM in test [4] (setting [8]); 18.2 µM in test [4] (setting [9]); above 57 µM in test [5]; above 57 µM in test [6].
For the molecule `C=CC1=C(C(=O)O)N2C(=O)[C@@H](NC(=O)/C(=N\OCC(=O)O)c3csc(N)n3)[C@H]2SC1` [MLS002222332], the IC50 was above 57 µM in test [2]; 2.8 µM in test [7] (setting [11]); 11.9 µM in test [4] (setting [8]); above 57 µM in test [5]; above 57 µM in test [6].
On to `N#Cc1c(NC(=O)COC(=O)c2ccc(O)cc2O)sc2c1CCC2` [MLS001159876], for which the IC50 in test [2] is above 57 µM; in test [7] (setting [10]), 11.2 µM; in test [4] (setting [8]), 11.9 µM; in test [4] (setting [9]) it was 18.2 µM; in test [5], 11.5 µM; in test [6] it was above 57 µM.
In the case of `O=C(CSc1nc2sc3c(c2c(=O)n1-c1ccccc1)CCCC3)NN=Cc1ccccc1C(=O)O` [MLS001147809], the IC50 is above 57 µM in test [2]; 12.6 µM in test [7] (setting [10]); 10.6 µM in test [4] (setting [8]); 14.5 µM in test [4] (setting [9]); above 57 µM in test [5]; above 57 µM in test [6].
As for `O=C(COC(=O)/C=C/c1ccco1)Nc1ncc(Cl)cc1Cl` [MLS000391557], the “MMS Assay” value in test [3] is reported as “I”. Further, the IC50 in test [5] and in test [6] was above 57 µM each time.
For the molecule `COc1ccc(NC(=O)CN(C)C(=O)c2cc3c(s2)CCC3)cc1` [MLS001081306], the IC50 in test [2] was above 57 µM; in test [7] (setting [11]), 0.1 µM; in test [4] (setting [8]) it was 1.9 µM; in test [4] (setting [9]), 7.3 µM; in test [5], 40.8 µM; in test [6], above 57 µM.
For the molecule `O=C(COC(=O)Cc1cccc(C(F)(F)F)c1)NCc1ccco1` [MLS002169571], the IC50 in test [2] is above 57 µM; in test [7] (setting [11]) it was 7.1 µM; in test [4] (setting [8]) it was 10.6 µM; in test [4] (setting [9]) it was 45.7 µM; in test [5] it was above 57 µM; in test [6] it was above 57 µM.
For the molecule `O=C(NC1CC1)C1CCN(S(=O)(=O)c2cc([N+](=O)[O-])ccc2Cl)CC1` [MLS002162311], the IC50 in test [2] was above 57 µM; in test [7] (setting [11]), 8.9 µM; in test [4] (setting [8]) it was 10.6 µM; in test [4] (setting [9]), 32.4 µM; in test [5], 36.3 µM; in test [6], above 57 µM.
For `COc1ccc(S(=O)(=O)N2CCOCC2)cc1NC(=O)c1cccc(-n2cccc2)c1` [MLS001161521], the IC50 was above 57 µM in test [2]; 4.5 µM in test [7] (setting [11]); 3.8 µM in test [4] (setting [8]); 7.3 µM in test [4] (setting [9]); above 57 µM in test [5]; above 57 µM in test [6].
On to `O=C(O)c1ccc(-c2ccc(/C=c3/sc4nc5ccccc5n4c3=O)o2)cc1Cl` [MLS001196440], for which the IC50 in test [2] is above 57 µM; in test [7] (setting [11]) it was 7.1 µM; in test [4] (setting [8]), 9.5 µM; in test [4] (setting [9]), 7.3 µM; in test [5], 40.8 µM; in test [6] it was above 57 µM.
On to `COc1cccc(NC(=O)CN(C)C(=O)c2cc(-c3ccco3)nc3ccccc23)c1` [MLS001156783], for which the IC50 in test [2] is above 57 µM; in test [7] (setting [11]) it was 7.9 µM; in test [4] (setting [8]), 10.6 µM; in test [4] (setting [9]), 10.2 µM; in test [5], above 57 µM; in test [6] it was above 57 µM.

Values taken from article PMC3479139, “Diverse Small Molecule Inhibitors of Human Apurinic/Apyrimidinic Endonuclease APE1 Identified from a Screen of a Large Public Collection” (PLoS ONE, 2012).
